Results taken from patent publication US20190062305A1, “PYRIDYL OR PYRAZINYL COMPOUNDS CARRYING A METHYL-BOUND ALPHA-AMINO ACID AMIDE GROUP” (ABBVIE DEUTSCHLAND GMBH & CO. KG, priority 2015, published 2019).
Where a name gives a salt, the structure may show the parent alone. Read-outs that look alike come from different tables or passages of the source.

Assays:
[1] = Metabolic stability in human liver microsomes, unbound intrinsic clearance (Cl int/fu mic); assay type: in vitro ADME; conditions: pH 7.4, human liver microsomes 0.25 mg/mL, 0.5 μM compound, NADPH, read-out: Cl int, mic unb. (h) [l/h/kg] (unbound intrinsic clearance, human)
Outline: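 Unbound intrinsic clearance is CLint divided by fu mic, with the unbound fraction measured by 4 h HTDialysis at 37 °C of 0.25 mg/ml microsomes spiked with 0.5 µM compound. For CLint, 0.5 µM compound was incubated with 0.25 mg/mL human microsomes and 1.0 mM NADPH (pH 7.4, 37 °C). Substrate loss over 30 min was measured by LC-MS/MS and t1/2 assumed first-order kinetics.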

5-HT2C receptor = biological target: T1, 5-HT2C receptor (Homo sapiens, UniProt P28335); assay: Human 5-HT2C functional assay (beta-arrestin2 recruitment, U2OS_HTR2C_β-Arrestin cells); assay type: cell-based; conditions: for EC50: beta-arrestin2 recruitment, U2OS_HTR2C_β-Arrestin cells, 1.5 h incubation, read-out: EC50 5-HT2C (potency in functional assay); for Emax: relative efficacy vs response to 10 μM 5-HT or maximal 5-HT effect (100%)
T1 construct: host or cells: U2OS
Outline: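 EC50 and relative efficacy came from 4-parameter variable-slope fits, normalised to 10 µM 5-HT or maximal 5-HT response (100%). Luminescent β-galactosidase enzyme-complementation signal was read after 1.5 h compound exposure in U2OS_HTR2C_β-Arrestin cells held in 1% serum medium from the prior day.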

T1 sequence (P28335 33-458): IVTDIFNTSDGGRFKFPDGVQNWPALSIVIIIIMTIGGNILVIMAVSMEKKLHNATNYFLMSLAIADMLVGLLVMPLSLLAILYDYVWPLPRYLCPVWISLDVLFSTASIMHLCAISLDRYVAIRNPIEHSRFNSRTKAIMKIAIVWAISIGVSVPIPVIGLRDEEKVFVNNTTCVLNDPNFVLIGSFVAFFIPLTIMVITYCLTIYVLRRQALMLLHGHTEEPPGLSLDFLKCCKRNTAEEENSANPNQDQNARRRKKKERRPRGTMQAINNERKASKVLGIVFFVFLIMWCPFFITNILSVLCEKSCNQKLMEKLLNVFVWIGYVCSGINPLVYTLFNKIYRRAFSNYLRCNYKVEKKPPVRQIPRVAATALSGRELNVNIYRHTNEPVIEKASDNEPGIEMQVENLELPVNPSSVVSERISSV
T1 sequence (P32121 whole entry partner): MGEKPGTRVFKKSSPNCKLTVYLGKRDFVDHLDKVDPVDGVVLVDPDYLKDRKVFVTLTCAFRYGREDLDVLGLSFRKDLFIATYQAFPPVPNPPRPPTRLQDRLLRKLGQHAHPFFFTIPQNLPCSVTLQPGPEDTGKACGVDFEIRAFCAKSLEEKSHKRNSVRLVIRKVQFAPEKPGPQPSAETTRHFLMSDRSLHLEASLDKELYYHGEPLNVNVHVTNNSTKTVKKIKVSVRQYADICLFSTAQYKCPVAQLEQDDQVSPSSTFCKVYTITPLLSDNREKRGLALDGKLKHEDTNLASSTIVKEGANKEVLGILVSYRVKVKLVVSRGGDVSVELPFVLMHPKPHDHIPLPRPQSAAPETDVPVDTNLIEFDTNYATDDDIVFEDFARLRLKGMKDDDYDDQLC

SMILES	CLint scaled at 0.5 μM ([1]; human, liver microsomes) [L/h/kg]	EC50 (5-HT2C receptor) [nM]	Emax (5-HT2C receptor) [%]	CLint scaled at 0.5 μM [1] [L/h/kg]
COc1nc(O[C@H]2CC[C@H](C(F)(F)F)CC2)c(F)cc1CN(C)C(=O)[C@@H]1CCCN1 [Example 116, (2S)—N-[[5-Fluoro-2-methoxy-6-[trans-4-(trifluoromethyl)cyclohexoxy]-3-pyridyl]methyl]-N-methyl-pyrrolidine-2-carboxamide Hydrochloride]	5 to 50	20 to 200	50 to 70	
COc1nc(OCC(F)(F)C(F)(F)C(F)(F)F)c(F)cc1CN(C)C(=O)[C@@H]1CCCN1 [Example 117, (2S)—N-[[5-Fluoro-6-(2,2,3,3,4,4,4-heptafluorobutoxy)-2-methoxy-3-pyridyl]-methyl]-N-methyl-pyrrolidine-2-carboxamide Hydrochloride]		< 20	50 to 70	5 to 50
COc1nc(OC2CCC3(CC2)CC3(F)F)c(F)cc1CNC(=O)[C@@H]1CCCN1 (stereo partly drawn) [Example 118, (2S)—N-[[6-(2,2-Difluorospiro[2.5]octan-6-yl)oxy-5-fluoro-2-methoxy-3-pyridyl]methyl]pyrrolidine-2-carboxamide; 2,2,2-trifluoroacetic Acid]	5 to 50	< 20	> 70	
COc1nc(O[C@H]2CC[C@@H](C(F)(F)F)CC2)c(F)cc1CN(C)C(=O)[C@@H]1CCCN1 [Example 119, (2S)—N-[[5-Fluoro-2-methoxy-6-[cis-4-(trifluoromethyl)cyclohexoxy]-3-pyridyl]-methyl]-N-methyl-pyrrolidine-2-carboxamide hydrochloride]	5 to 50	20 to 200	> 70	
COc1nc(-c2ccccc2)c(F)cc1CNC(=O)[C@@H]1CCCN1 [Example 125, (2S)—N-[(5-Fluoro-2-methoxy-6-phenyl-3-pyridyl)methyl]pyrrolidine-2-carboxamide; 2,2,2-trifluoroacetic Acid]	5 to 50	200 to 1000	> 70	
COc1nc(NC2CCC(F)(F)CC2)c(F)cc1CNC(=O)[C@@H]1CCCN1 [Example 126, (2S)—N-[[6-[(4,4-Difluorocyclohexyl)amino]-5-fluoro-2-methoxy-3-pyridyl]methyl]pyrrolidine-2-carboxamide; 2,2,2-trifluoroacetic Acid]	< 5	< 20	> 70	
COc1nc(C2CC2)c(F)cc1CNC(=O)[C@@H]1CCCN1 [Example 127, (2S)—N-[(6-Cyclopropyl-5-fluoro-2-methoxy-3-pyridyl)methyl]pyrrolidine-2-carboxamide; 2,2,2-trifluoroacetic Acid]	5 to 50	200 to 1000	> 70	
COc1nc(N2CCCCC2)c(F)cc1CNC(=O)[C@@H]1CCCN1 [Example 128, (2S)—N-[[5-Fluoro-2-methoxy-6-(1-piperidyl)-3-pyridyl]methyl]pyrrolidine-2-carboxamide]	< 5	20 to 200	> 70	
COc1nc(NC2CCC(C(F)(F)F)CC2)c(F)cc1CNC(=O)[C@@H]1CCCN1 (stereo partly drawn) [Example 130, (2S)—N-[[5-Fluoro-2-methoxy-6-[[4-(trifluoromethyl)cyclohexyl]amino]-3-pyridyl]methyl]pyrrolidine-2-carboxamide]	5 to 50	< 20	> 70	
COc1nc(NC2CCCCC2)c(F)cc1CNC(=O)[C@@H]1CCCN1 [Example 131, (2S)—N-[[6-(Cyclohexylamino)-5-fluoro-2-methoxy-3-pyridyl]methyl]pyrrolidine-2-carboxamide]	5 to 50	< 20	> 70	
COc1nc(C2CCCCC2)c(F)cc1CNC(=O)[C@@H]1CCCN1 [Example 132, (2S)—N-[(6-Cyclohexyl-5-fluoro-2-methoxy-3-pyridyl)methyl]pyrrolidine-2-carboxamide; 2,2,2-trifluoroacetic Acid]	50 to 500	< 20	> 70	
